Laboratory results published in US12202790B2, “Sulfonamide derivatives having selective Nox inhibiting activity” (GLUCOX BIOTECH AB, priority 2018, dated 2025).
Values after ≈ are worked out from the molar mass of the structure shown. Where two headings read alike, the source gives them in different places.

Key:
hNox4 = hNox4 (Homo sapiens (Human), UniProt Q9NPH5); assay: Amplex Red assay of intact Nox4 expressing HEK293 cells; type: cell-based
Experimental: (§1) HEK293 overexpressing Nox4 (CJ Nox4) cells were purchased from Redoxis, Lund, Sweden. HEK 293 cells expressing Nox5, Nox3 (HEK TRex) and CHO cells expressing Nox1, were a kind gift from Vincent Jaque Center Medical Universitaire, Geneva, Switzerland. Nox2 expressed in isolated neutrophils were isolated from whole blood (human), as previously described (Anvari E, et al., Free Radic Res 2015; 49:1308-1318).
HEK293 cells (CJ Nox4) were cultured in RPMI 1640 with Glutamax supplemented with FBS (10%), penicillin (100 U/ml) and streptomycin […] at 37° C. in air with 5% CO2. Every third passage 200 µg/ml neomycin were supplied in growth medium as selective agent.
Reactive oxygen produced in whole cells or in membrane preparation of Nox1, Nox3, Nox4, Nox5 and xanthine oxidase and glucose oxidase were determined using Amplex Red as detection probe of formed H2O2. Amplex Red (10-acetyl-3,7-dihydroxyphenoxazine) in combination with HRP and co-factors reacts with H2O2 in a 1:1 stoichiometry to form a highly fluorescent resorufin excitated at 544 nm producing emission at 590 nm.
Adherent cells (CHO, HEK) were collected by trypsinization, centrifuged, washed with HBSS, counted, and resuspended in HBSS. Cells were seeded in 96-well black flat bottom plates at a density of 50,000-100,000 cells/well. All compounds were dissolved in DMSO and concentrations ranging from 0.003 to 200 μM were tested in Nox cellular assays with a final concentration of DMSO of 1%. Cells were incubated at 37° C. with the compounds for 30 minutes before measurement. Cells expressing Nox1 and Nox2 were activated with the PKC activator PMA (0.1 μM). Nox5 was activated with the Ca2+ ionophore ionomycin (1 μM) and further enforced with PMA. The CJ HEK 293 cells overexpressed Nox4 constitutively. In the HTS screen HEK 293 TRex was used and tetracycline ([…]) was added 18 h before measurement to induce Nox4 expression. Production of hydrogen peroxide by Nox in intact cells was measured using Amplex Red fluorescence as described by Jaquet V, et al., Br J Pharmacol 2011; 164:507-520. Assay reagents including HRP ([…]) and Amplex Red (50 μM) were added to initiate production of hydrogen peroxide. Fluorescence was read in a fluorescence plate reader at 37° C. every minute between 30-60 minutes.

Nox2 = Nox2 (Homo sapiens (Human), UniProt P04839); assay: Nox2 inhibition in human neutrophils, isoluminol-dependent chemiluminescence; type: cell-based; set-up: key to IC50 Nox2: The sign “—” stands for “inactive”; settings: PMA stimulated human neutrophils
Chain of Nox2 (P04839 2-570): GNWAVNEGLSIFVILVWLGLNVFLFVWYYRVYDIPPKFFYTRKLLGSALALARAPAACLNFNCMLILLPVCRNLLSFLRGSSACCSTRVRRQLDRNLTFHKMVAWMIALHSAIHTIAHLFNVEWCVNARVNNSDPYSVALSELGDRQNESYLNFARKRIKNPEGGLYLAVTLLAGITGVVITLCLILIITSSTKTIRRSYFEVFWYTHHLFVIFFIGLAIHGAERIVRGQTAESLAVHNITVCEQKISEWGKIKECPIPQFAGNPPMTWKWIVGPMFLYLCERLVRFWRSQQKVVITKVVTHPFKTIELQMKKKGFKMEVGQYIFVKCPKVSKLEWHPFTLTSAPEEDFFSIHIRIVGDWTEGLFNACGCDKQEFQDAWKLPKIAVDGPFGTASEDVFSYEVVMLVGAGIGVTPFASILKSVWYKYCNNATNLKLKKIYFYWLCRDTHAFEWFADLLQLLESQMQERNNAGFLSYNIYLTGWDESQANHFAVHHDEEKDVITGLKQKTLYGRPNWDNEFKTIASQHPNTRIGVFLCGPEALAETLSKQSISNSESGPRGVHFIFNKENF
Chain of Nox2 (P13498 2-195 partner): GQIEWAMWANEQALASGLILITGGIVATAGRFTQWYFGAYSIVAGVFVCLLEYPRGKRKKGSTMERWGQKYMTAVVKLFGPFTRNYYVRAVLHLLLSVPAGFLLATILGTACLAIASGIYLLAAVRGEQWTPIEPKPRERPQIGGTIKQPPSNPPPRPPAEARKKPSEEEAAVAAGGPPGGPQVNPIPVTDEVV
Experimental: as §1
Compounds of the invention were tested for selectivity against Nox2 in isolated neutrophils from whole blood (human), as previously described (Anvari E, et al., vide supra). Levels of ROS from PMA stimulated primary human neutrophils were measured using isoluminol-dependent chemiluminescence. […] The dye is excited by ROS and the light emitted when the excited molecules return to the ground state, relative to the amount of released ROS, is measured. This reaction is catalyzed and amplified by peroxidases. […] Compounds of the invention and GKT136901 were diluted at 4× working concentration and titrated from 100 μM to 0.006 μM in 1:4 steps as final concentrations. DPI was diluted in isoluminol buffer at 4× working concentration titrated from 10 μM to 0.0006 μM as final concentrations. PMA was diluted in isoluminol buffer at 4× working concentration for a final concentration of 30 ng/ml. […] Luminescence was detected using FluoStar Optima (BMG, Labtech). The isoluminol buffer was prepared immediately prior to addition to test plate. The buffer contained HRP fraction with or without PMA (30 ng/ml). Stock solutions at 6 μg/ml (PMA in HBSS), 3 μg/ml (PMA in DMSO) and 24 mM (DPI) were used and further diluted at the day of analysis to 4× working concentrations in HBSS with or without DMSO.

DPPH redox assay = assay: DPPH redox assay; set-up: key: The sign “—” stands for “inactive”; settings: redox activity control
Experimental: DPPH, a well-known sensitive chemical of monitoring reactions involving radicals described by Xiong Q, et al., Biol Pharm Bull 1996; 19:1580-1585, was used as control to exclude any redox active compound. DPPH was incubated with decreasing concentrations (200-0.003 μM) of compounds of the invention or prior art compound GKT136901 (as a positive control). The plate was kept in the dark for 60 min, after which the absorbance of the solution was measured at 518 nm.

[1] = Determination of solubility; type: physicochemical; settings: 10 mM potassium phosphate buffer, aqueous buffer, kinetic from dmso stock; 10 mM potassium phosphate pH 7.4, 24 h, room temperature; read-out: Kinetic solub.
Experimental: Two μl of test compound (from 10 mM DMSO stock) were diluted 100× in 10 mM potassium phosphate pH 7.4 in a HPLC glass vial, sealed and incubated for 24 h under rotation (900 rpm) at room temperature. After the incubation 150 μl were transferred to conical glass inserts and centrifuged for 20 min at 10,000×g. Two μl of the supernatant were transferred to a 96-well plate, diluted 100× with acetonitrile/H2O (60/40, vol/vol) and analyzed by LC-MS/MS.

[2] = Microsomal metabolic stability, human; type: in vitro ADME; settings: pooled liver microsomes, pH 7.4, read-out: Metab. stab, human t1/2
Experimental: The microsomal metabolic stability assay utilizes pooled human, or animal (mouse) species, liver microsomes with supplemented cofactor (NADPH) to primarily facilitate cytochrome P450 (CYP) reactivity against target compound. Test compound (1 μM incubation concentration) and microsomes (0.5 mg/ml incubation concentration) were diluted in 0.1 M phosphate buffer, pH 7.4, in a volume of 150 μl. The reaction was initiated with addition of NADPH (1 mM). The incubation times were 0, 5, 15, 40 min and the reaction was quenched, at each time point, by addition of 100 μl acetonitrile containing Warfarin as IS. The plate was then sealed, centrifuged and frozen at −20 C until LC-MS/MS analysis.

[3] = Plasma protein binding, mouse; type: in vitro ADME; settings: 10 μM in plasma, equilibrium dialysis 4 h, read-out: fu % mouse plasma protein
Experimental: Example compounds were incubated at 10 μM in plasma and then equilibrium dialysed for 4 h, using a rapid equilibrium device. Protein binding (fu %) was determined by LS/MS as previously described (Anvari E, et al., vide supra).

[4] = read-out: IC50 on hNox4 in recombinant cells

Chain of hNox4 (Q9NPH5 whole entry): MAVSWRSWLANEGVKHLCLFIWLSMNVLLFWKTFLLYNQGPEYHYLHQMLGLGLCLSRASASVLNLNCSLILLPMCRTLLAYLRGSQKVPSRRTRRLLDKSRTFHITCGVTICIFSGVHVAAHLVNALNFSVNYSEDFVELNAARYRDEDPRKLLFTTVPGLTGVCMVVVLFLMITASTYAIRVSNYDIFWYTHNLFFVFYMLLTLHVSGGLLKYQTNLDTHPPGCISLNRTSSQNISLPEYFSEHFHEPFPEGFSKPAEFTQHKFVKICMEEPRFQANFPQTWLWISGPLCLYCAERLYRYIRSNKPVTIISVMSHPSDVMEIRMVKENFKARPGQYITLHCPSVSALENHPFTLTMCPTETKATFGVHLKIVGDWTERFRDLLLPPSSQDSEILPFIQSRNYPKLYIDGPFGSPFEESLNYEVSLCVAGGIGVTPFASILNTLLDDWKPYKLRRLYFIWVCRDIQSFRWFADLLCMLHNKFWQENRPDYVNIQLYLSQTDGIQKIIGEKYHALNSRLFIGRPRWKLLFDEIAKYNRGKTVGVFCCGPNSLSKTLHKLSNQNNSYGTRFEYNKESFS
Chain of hNox4 (P13498 2-195 partner): as the sequence (P13498 2-195 partner) above

| IC50 (hNox4; read-out: IC50 Nox4) [nM] | IC50 DPPH (DPPH redox assay) | solubility kinetic at 24 h [1] [µM] | half-life at 1 μM [2] [min] | fraction unbound at 4 h, 10 μM [3] | IC50 (Nox2) [nM] | SMILES | IC50 Nox2 (Nox2) | IC50 (hNox4; [4]) [nM] |
| --- | --- | --- | --- | --- | --- | --- | --- | --- |
| 1700 | — | 4.5 (≈ 1.99 µg/mL) | 11 to 13 | 0.0002 |  | Cc1ccccc1C(F)CNS(=O)(=O)c1c(Cl)cc(Br)cc1Cl (racemic) [Example 35, 4-bromo-2,6-dichloro-N-[2-fluoro-2-(2-methylphenyl)ethyl]benzene-1-sulfonamide] | — |  |
| 800 | — | > 100 | 6 to 10 | 0.0056 | 900 | Cc1cc(C)c(S(=O)(=O)NCCc2ccccc2O)c(C)c1 [Example 37, N-[2-(2-hydroxyphenyl)ethyl]-2,4,6-trimethylbenzene-1-sulfonamide] |  |  |
| 300 | — | 77 (≈ 32.7 µg/mL) | 9 to 11 | 0.0056 | 1500 | O=S(=O)(NCCc1ccccc1O)c1c(Cl)cc(Br)cc1Cl [Example 38, 4-bromo-2,6-dichloro-N-[2-(2-hydroxyphenyl)ethyl]benzenesulfonamide] |  |  |
| 2400 | — | 94 (≈ 33.4 µg/mL) | 36 | 0.025 | 900 | Cc1cc(Cl)c(S(=O)(=O)NCCc2ccccc2O)c(C)c1O [Example 44, 6-chloro-3-hydroxy-N-[2-(2-hydroxyphenyl)ethyl]-2,4-dimethyl-benzenesulfonamide] |  |  |
| 300 | — | 16 (≈ 5.66 µg/mL) | 2 | 0.0021 |  | COc1cc(C)c(S(=O)(=O)NCCc2ccccc2Cl)c(C)c1 [Example 46, N-[2-(2-chlorophenyl)ethyl]-4-methoxy-2,6-dimethyl-benzenesulfonamide] | — |  |
| 1600 | — | > 100 | 14 | 0.017 | 1000 | COc1cc(C)c(S(=O)(=O)NCCc2ccccc2O)c(C)c1 [Example 47, N-[2-(2-hydroxyphenyl)ethyl]-4-methoxy-2,6-dimethyl-benzenesulfonamide] |  |  |
| 22000 | — | 97 (≈ 31.2 µg/mL) | 69 | 0.005 | 870 | Cc1cc(O)cc(C)c1S(=O)(=O)NCCc1ccccc1O [Example 48, 4-hydroxy-N-[2-(2-hydroxyphenyl)ethyl]-2,6-dimethyl-benzenesulfonamide] |  |  |

| SMILES | IC50 (hNox4; read-out: IC50 Nox4) [nM] | IC50 DPPH (DPPH redox assay) | solubility kinetic at 24 h [1] [µM] | half-life at 1 μM [2] [min] | fraction unbound at 4 h, 10 μM [3] | IC50 (Nox2) [nM] | IC50 Nox2 (Nox2) | IC50 (hNox4; [4]) [nM] |
| --- | --- | --- | --- | --- | --- | --- | --- | --- |
| Cc1ccccc1CCNS(=O)(=O)c1c(C)cccc1Cl [Example 11, 2-chloro-6-methyl-N-[2-(2-methylphenyl)ethyl]benzene-1-sulfonamide] | 2400 | — |  |  |  |  | — | 2400 |
| Cc1ccccc1CCNS(=O)(=O)c1c(Cl)cc(Br)cc1Cl [Example 17, 4-bromo-2,6-dichloro-N-[2-(2-methylphenyl)ethyl]benzene-1-sulfonamide] | 270 | — | 0.16 (≈ 0.0677 µg/mL) | 3 to 4 | 0.0004 |  | — | 270 |
| O=S(=O)(NCCc1ccccc1Cl)c1c(Cl)cc(C2CC2)cc1Cl [Example 26, 2,6-dichloro-N-[2-(2-chlorophenyl)ethyl]-4-cyclopropylbenzene-1-sulfonamide] | 360 | — |  |  |  |  | — | 360 |
